From the NIST ThermoML archive (doi:10.1021/je7007632)

Legend:
[1] = refractive index (Na D-line) (dimensionless); conditions: 101.33 kPa, Liquid, Standard Abbe refractometry
[2] = refractive index (Na D-line) (dimensionless); xn = mol fraction of the nth substance listed; conditions: 101 kPa, Liquid, Standard Abbe refractometry

CC(O)CCO (centres undefined) [1,3-butanediol]
[1]
Conditions | refractive index
293.15 K | 1.4412
298.15 K | 1.4391
303.15 K | 1.437
308.15 K | 1.4349
313.15 K | 1.4329
318.15 K | 1.4308

CC(O)CCO (centres undefined) [1,3-butanediol] + NC=O
refractive index, [2]
Conditions | x2 = 0 | x2 = 0.1061 | x2 = 0.2004 | x2 = 0.3068 | x2 = 0.4026 | x2 = 0.5033 | x2 = 0.6046 | x2 = 0.7013 | x2 = 0.8073 | x2 = 0.9058
293.15 K | 1.4412 | 1.441 | 1.4409 | 1.4411 | 1.4414 | 1.4419 | 1.4425 | 1.4434 | 1.4445 | 1.4459
298.15 K | 1.4391 | 1.4389 | 1.4389 | 1.4391 | 1.4395 | 1.4401 | 1.4409 | 1.4419 | 1.4432 | 1.4448
303.15 K | 1.437 | 1.4368 | 1.4369 | 1.4372 | 1.4377 | 1.4384 | 1.4393 | 1.4404 | 1.4419 | 1.4437
308.15 K | 1.4349 | 1.4348 | 1.4349 | 1.4352 | 1.4358 | 1.4366 | 1.4377 | 1.4389 | 1.4406 | 1.4427
313.15 K | 1.4329 | 1.4328 | 1.4329 | 1.4333 | 1.434 | 1.4349 | 1.436 | 1.4374 | 1.4393 | 1.4415
318.15 K | 1.4308 | 1.4307 | 1.4309 | 1.4314 | 1.4321 | 1.4331 | 1.4344 | 1.4359 | 1.4379 | 1.4404

OCCCCO [1,4-butanediol]
[1]
Conditions | refractive index
293.15 K | 1.4451
298.15 K | 1.4431
303.15 K | 1.4411
308.15 K | 1.4391
313.15 K | 1.4372
318.15 K | 1.4352

OCCCCO [1,4-butanediol] + NC=O
refractive index, [2]
Conditions | x2 = 0 | x2 = 0.1052 | x2 = 0.1988 | x2 = 0.3041 | x2 = 0.4002 | x2 = 0.5009 | x2 = 0.6022 | x2 = 0.6992 | x2 = 0.8051 | x2 = 0.905
293.15 K | 1.4451 | 1.4445 | 1.444 | 1.4437 | 1.4436 | 1.4437 | 1.444 | 1.4445 | 1.4452 | 1.4463
298.15 K | 1.4431 | 1.4425 | 1.442 | 1.4418 | 1.4418 | 1.442 | 1.4424 | 1.4431 | 1.4439 | 1.4452
303.15 K | 1.4411 | 1.4405 | 1.44 | 1.4399 | 1.44 | 1.4403 | 1.4408 | 1.4416 | 1.4426 | 1.4441
308.15 K | 1.4391 | 1.4385 | 1.438 | 1.438 | 1.4382 | 1.4386 | 1.4392 | 1.4401 | 1.4413 | 1.443
313.15 K | 1.4372 | 1.4365 | 1.4361 | 1.4361 | 1.4364 | 1.4369 | 1.4376 | 1.4386 | 1.44 | 1.4419
318.15 K | 1.4352 | 1.4345 | 1.4341 | 1.4342 | 1.4345 | 1.4351 | 1.4359 | 1.437 | 1.4386 | 1.4407

CCCCO [butan-1-ol]
[1]
Conditions | refractive index
293.15 K | 1.3994
298.15 K | 1.3974
303.15 K | 1.3953
308.15 K | 1.3933
313.15 K | 1.3913
318.15 K | 1.3893

CCCCO [butan-1-ol] + NC=O
[2], x2 = 0
Conditions | refractive index
293.15 K | 1.3994
298.15 K | 1.3974
303.15 K | 1.3953
308.15 K | 1.3933
313.15 K | 1.3913
318.15 K | 1.3893
